# Counter-ions that a name gives are not always drawn.
# Target: T1, rh beta trypsin (Homo sapiens, UniProt P20231)
# T1 construct: purchased Promega
# Assay: Trypsin (tryptase) inhibition, cleavage of N-p-Gly-Pro-Lys-para-nitroaniline measured at 405 nm
# Format: biochemical
# Conditions: in vitro tests on the pro-drugs of formula IIA; read-out: IC50
# Experimental: The compounds of the invention are notable for their effective trypsin-inhibiting property. The said capacity to inhibit trypsin activity was determined in accordance with the following trial descriptions.
# The determinations are carried out in tris-HCl buffer (100 mM), that also contained calcium (5 mM) and heparin ([…]), at a pH of 7.4. As the standard, rh beta trypsin is used, this is commercially obtainable, for example, from Promega. A suitable substrate is N-p-Gly-Pro-Lys-para-nitroaniline in a concentration of 0.6 mM. The substrate is digested with trypsin, whereby p-nitro-aniline is obtained that can be measured at 405 nm. Normally, an incubation period of 5 minutes and an incubation temperature of 37° C. is chosen. For the enzyme activity, 0.91 U/ml are used. The determination is carriedout in an auto-analyser (Cobas Bio) from the firm Hoffmann LaRoche. The potential inhibitor substances are used in the screening procedure in concentrations of 10 μM, and the inhibition of the trypsin is given in percentages. At an inhibition in excess of 70%, the IC50 is determined (the concentration at which 50% of the enzyme activity is inhibited). After a 5-minute pre-incubation of the potential inhibiting substance, the substrate is added for the start of the reaction, whereby the production of p-nitro-aniline is taken, after 5 minutes, after testing the linearity, as a measure of the enzyme activity.
# T1 sequence (P20231 31-275): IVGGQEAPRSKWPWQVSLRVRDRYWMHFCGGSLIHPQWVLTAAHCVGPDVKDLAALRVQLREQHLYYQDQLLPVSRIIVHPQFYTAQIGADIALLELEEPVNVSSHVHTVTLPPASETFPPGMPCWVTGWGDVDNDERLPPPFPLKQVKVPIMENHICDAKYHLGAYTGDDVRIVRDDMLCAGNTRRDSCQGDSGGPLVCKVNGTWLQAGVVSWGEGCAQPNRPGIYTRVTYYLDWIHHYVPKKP
row,IC50 [nM],Compound
1,7910,CCCCCCCCOC(=O)N=C(N)c1ccc(CCc2nc3cc(C(=O)N4CCC(NC(=O)c5ccccc5)CC4)ccc3n2C)cc1 [IIA10]
2,360,Cn1c(CCc2ccc(C(N)=NC(=O)c3ccccc3)cc2)nc2cc(C(=O)N3CCC(NC(=O)c4ccccc4)CC3)ccc21 [IIA17]

# Same assay, conditions: in vitro; tris-HCl buffer pH 7.4 with calcium and heparin; substrate 0.6 mM; 5 minutes, 37° C.; read-out: Trypsin-inhibiting property
row,IC50 [nM],Compound
1,1 to 20,"COc1ccccc1NC(=O)NC1CCN(C(=O)c2ccc3c(c2)nc(CCc2ccc(C(=N)N)cc2)n3C)CC1 [Example 30, 4-[2-(5-{4-[3-(2-Methoxy-phenyl)-ureido]-piperidine-1-carbonyl}-1-methyl-1H-benzimidazole-2-yl)-ethyl]-benzamidine]"
2,1 to 20,"COc1ccccc1C(=O)NC1CCN(C(=O)c2ccc3c(c2)nc(CCc2ccc(C(=N)N)cc2)n3C)CC1 [Example 50, 2-[2-(4-Amidinophenyl)-ethyl]-1-methyl-benzimidazole-5-yl-carboxylic acid-[4-(2-methoxy)-benzamidopiperidinyl)-amide]"
3,0.1 to 1,"Cn1c(CCc2ccc(C(=N)N)cc2)nc2cc(C(=O)N3CCC(NC(=O)Nc4ccccc4Cl)CC3)ccc21 [Example 29, 4-[2-(5-{4-[3-(2-Chloro-phenyl)-ureido]-piperidine-1-carbonyl}-1-methyl-1H-benzimidazole-2-yl)-ethyl]-benzamidine]"
4,1 to 20,"Cn1c(CCc2ccc(C(=N)N)cc2)nc2cc(C(=O)N3CCC(NC(=O)c4ccccc4O)CC3)ccc21 [Example 46, 2-[2-(4-Amidinophenyl)-ethyl]-1-methyl-benzimidazole-5-yl-carboxylic acid-[4-(2-hydroxy)-benzamidopiperidinyl)-amide]"
5,1 to 20,"Cn1c(CCc2ccc(C(=N)N)cc2)nc2cc(C(=O)N3CCN(C/C=C/c4ccccc4)CC3)ccc21 [Example 1, [2-(4-amidinophenyl)-ethyl]-1-methyl-benzimidazole-5-yl-carboxylic acid-[4-(3-phenyl-allyl)-piperazinyl]-amide-dihydrochloride]"
6,1 to 20,Cc1c(Cl)cccc1S(=O)(=O)N(C)C1CCN(C(=O)c2ccc3c(c2)nc(CCc2ccc(C(=N)N)cc2)n3C)CC1 [Example 170]
7,0.1 to 1,"Cn1c(CCc2ccc(C(=N)N)cc2)nc2cc(C(=O)N3CCC(NC(=O)Nc4cccc(Br)c4)CC3)ccc21 [Example 43, 4-[2-(5-{4-[3-(3-Bromo-phenyl)-ureido]-piperidine-1-carbonyl}-1-methyl-1H-benzimidazole-2-yl)-ethyl]-benzamidine]"
8,1 to 20,Cn1c(CCc2ccc(C(=N)N)cc2)nc2cc(C(=O)N3CCC(NS(=O)(=O)/C=C/c4ccccc4)CC3)ccc21 [Example 167]
9,1 to 20,Cn1c(CCc2ccc(C(=N)N)cc2)nc2cc(C(=O)N3CCC(NC(=O)Cc4cccc5ccccc45)CC3)ccc21 [Example 189]
10,1 to 20,"Cn1c(CCc2ccc(C(=N)N)cc2)nc2cc(C(=O)N3CCC(NC(=O)Nc4ccc(C(F)(F)F)cc4)CC3)ccc21 [Example 41, 4-[2-(1-Methyl-5-{4-[3-(4-trifluoromethyl-phenyl)-ureido]-piperidine-1-carbonyl}-1H-benzimidazole-2-yl)-ethyl]-benzamidine]"
11,1 to 20,"Cn1c(CCc2ccc(C(=N)N)cc2)nc2cc(C(=O)N3CCC(NC(=O)Nc4cccc(F)c4)CC3)ccc21 [Example 26, 4-[2-(5-{4-[3-(3-Fluoro-phenyl)-ureido]-piperidine-1-carbonyl}-1-methyl-1H-benzimidazole-2-yl)-ethyl]-benzamidine]"
12,1 to 20,CN(C1CCN(C(=O)c2ccc3c(c2)nc(CCc2ccc(C(=N)N)cc2)n3C)CC1)S(=O)(=O)/C=C/c1ccccc1 [Example 166]
13,1 to 20,"Cn1c(CCc2ccc(C(=N)N)cc2)nc2cc(C(=O)N3CCC(NC(=O)Nc4cccc5ccccc45)CC3)ccc21 [Example 34, 4-(2-{1-Methyl-5-[4-(3-naphthalen-1-yl-ureido)-piperidine-1-carbonyl]-1H-benzimidazole-2-yl}-ethyl)-benzamidine]"
14,1 to 20,"CN(C(=O)c1ccccc1)C1CCN(C(=O)c2ccc3c(c2)nc(CCc2ccc(C(=N)N)cc2)n3C)CC1 [Example 53, 2-[2-(4-Amidinophenyl)-ethyl]-1-methyl-benzimidazole-5-yl-carbooxylic acid-[4-(N-methyl)benzamidopiperidinyl]-amide]"
15,20 to 50,N=C(N)c1ccc(CCc2nc3cc(C(=O)N4CCC(NC(=O)c5ccccc5)CC4)ccc3n2C2CC2)cc1 [Example 196]
16,1 to 20,"Cn1c(CCc2ccc(C(=N)N)cc2)nc2cc(C(=O)N3CCC(NC(=O)Nc4ccc(Cl)cc4Cl)CC3)ccc21 [Example 35, 4-[2-(5-{4-[3-(2,4-Dichloro-phenyl)-ureido]-piperidine-1-carbonyl}-1-methyl-1H-benzimidazole-2-yl)-ethyl]-benzamidine]"

row,IC50 [nM],Compound
1,20 to 50,CCCCS(=O)(=O)NC1CCN(C(=O)c2ccc3c(c2)nc(CCc2ccc(C(=N)N)cc2)n3C)CC1 [Example 173]
2,1 to 20,"CC(=O)c1cccc(NC(=O)NC2CCN(C(=O)c3ccc4c(c3)nc(CCc3ccc(C(=N)N)cc3)n4C)CC2)c1 [Example 56, 2-[2-(4-Amidinophenyl)-ethyl]-1-methyl-benzimidazole-5-yl-carboxylic acid-{4-[3-(3-acetyl)-phenylureido]piperidinyl}-amide]"
3,1 to 20,"Cn1c(CCc2ccc(C(=N)N)cc2)nc2cc(C(=O)N3CCC(NC(=O)Nc4c(F)cccc4F)CC3)ccc21 [Example 38, 4-[2-(5-{4-[3-(2,6-Difluoro-phenyl)-ureido]-piperidine-1-carbonyl}-1-methyl-1H-benzimidazole-2-yl)-ethyl] -benzamidine]"
4,1 to 20,"Cn1c(CCc2ccc(C(=N)N)cc2)nc2cc(C(=O)N3CCC(NC(=O)NC4CCCCC4)CC3)ccc21 [Example 40, 4-(2-{5-[4-(3-Cyclohexyl-ureido)-piperidine-1-carbonyl]-1-methyl-1H-benzimidazole-2-yl}-ethyl)-benzamidine]"
5,0.1 to 1,"Cn1c(CCc2ccc(C(=N)N)cc2)nc2cc(C(=O)N3CCC(NC(=O)c4cccc(Br)c4)CC3)ccc21 [Example 45, 2-[2-(4-Amidinophenyl)-ethyl]-1-methyl-benzimidazole-5-yl-carboxylic acid-[4-(3-bromo)-benzamidopiperidinyl)-amide]"
6,1 to 20,"Cn1c(CCc2ccc(C(=N)N)cc2)nc2cc(C(=O)N3CCC(NC(=O)Nc4ccc(F)cc4)CC3)ccc21 [Example 42, 4-[2-(5-{4-[3-(4-Fluoro-phenyl)-ureido]-piperidine-1-carbonyl}-1-methyl-1H-benzimidazole-2-yl)-ethyl]-benzamidine]"
7,1 to 20,"CN(C(=O)Nc1cccc(Cl)c1Cl)C1CCN(C(=O)c2ccc3c(c2)nc(CCc2ccc(C(=N)N)cc2)n3C)CC1 [Example 55, 2-[2-(4-Amidinophenyl)-ethyl]-1-methyl-benzimidazole-5-yl-carboxylic acid-{4-[3-(2,3-dichloro)-phenyl-1-methyl-ureido]piperidinyl)-amide]"
8,1 to 20,CN(C1CCN(C(=O)c2ccc3c(c2)nc(CCc2ccc(C(=N)N)cc2)n3C)CC1)S(=O)(=O)c1cccc2ccccc12 [Example 169]
9,0.1 to 1,"COc1cccc(NC(=O)NC2CCN(C(=O)c3ccc4c(c3)nc(CCc3ccc(C(=N)N)cc3)n4C)CC2)c1 [Example 28, 4-[2-(5-{4-[3-(3-Methoxy-phenyl)-ureido]-piperidine-1-carbonyl}-1-methyl-1H-benzimidazole-2-yl)-ethyl]-benzamidine]"
10,1 to 20,"Cn1c(CCc2ccc(CN)cc2)nc2cc(C(=O)N3CCC(NC(=O)c4ccccc4)CC3)ccc21 [Example 15, 2-[2-(4-Aminomethylphenyl)-ethyl]-1-methyl-benzimidazole-5-yl-carboxylic acid-(4-benzamido-piperidinyl)-amide]"
11,1 to 20,"Cn1c(CCc2ccc(C(=N)N)cc2)nc2cc(C(=O)N3CCC(NC(=O)Nc4ccc(F)cc4F)CC3)ccc21 [Example 33, 4-[2-(5-{4-[3-(2,4-Difluoro-phenyl)-ureido]-piperidine-1-carbonyl}-1-methyl-1H-benzimidazole-2-yl)-ethyl]-benzamidine]"
12,0.1 to 1,"Cn1c(CCc2ccc(C(=N)N)cc2)nc2cc(C(=O)N3CCC(NC(=O)Nc4ccccc4Br)CC3)ccc21 [Example 37, 4-[2-(5-{4-[3-(2-Bromo-phenyl)-ureido]-piperidine-1-carbonyl}-1-methyl-1H-benzimidazole-2-yl)-ethyl]-benzamidine]"
13,1 to 20,CCCCS(=O)(=O)N(C)C1CCN(C(=O)c2ccc3c(c2)nc(CCc2ccc(C(=N)N)cc2)n3C)CC1 [Example 168]
14,1 to 20,"Cn1c(CCc2ccc(C(=N)N)cc2)nc2cc(C(=O)N3CCC(NC(=O)Nc4cccc(C(F)(F)F)c4)CC3)ccc21 [Example 32, 4-[2-(1-Methyl-5-{4-[3-(3-trifluoromethyl-phenyl)-ureido]-piperidine-1-carbonyl}-1H-benzimidazole-2-yl)-ethyl]-benzamidine]"
15,0.1 to 1,"Cn1c(CCc2ccc(C(=N)N)cc2)nc2cc(C(=O)N3CCC(NC(=O)Nc4ccccc4F)CC3)ccc21 [Example 27, 4-[2-(5-{4-[3-(2-Fluoro-phenyl)-ureido]-piperidine-1-carbonyl}-1-methyl-1H-benzimidazole-2-yl)-ethyl]-benzamidine]"
